Results reported in PMC9598367, “Discovery and Preliminary Structure-Activity Investigation of 3-Substituted-1H-imidazol-5-yl-1H-indoles with In Vitro Activity towards Methicillin-Resistant Staphylococcus aureus” (Antibiotics, 2022).
Values after ≈ are worked out from the molar mass of the structure shown.

System: human red blood cells
Experiment: Hemolytic assay
Assay type: cell-based
Conditions: concentration at 10% hemolytic activity on human red blood cells; mean (n = 2)
Method: Human whole blood was washed three times with 3 volumes of 0.9% NaCl and then resuspended in same to a concentration of 0.5 × 10^8 cells/mL, as determined by manual cell count in a Neubauer hemocytometer. The washed cells were then added to the 384-well compound-containing plates for a final volume of 50 μL. After a 10 min shake on a plate shaker the plates were then incubated for 1 h at 37 °C. After incubation, the plates were centrifuged at 1000 g for 10 min to pellet cells and debris, 25 μL of the supernatant was then transferred to a polystyrene 384-well assay plate. Hemolysis was determined by measuring the supernatant absorbance at […] (OD405). The absorbance was measured using a Tecan M1000 Pro monochromator plate reader. HC10 and HC50 (concentration at 10% and 50% hemolysis, respectively) were calculated by curve fitting the inhibition values vs. log(concentration) using a sigmoidal dose–response function with variable fitting values for top, bottom and slope.
With Melittin [reference compound] the “HC10” value was 2.7 µg/mL.

System: Staphylococcus aureus ATCC43300 (MRSA)
Experiment: MIC, MRSA ATCC43300 (CO-ADD protocol)
Assay type: cell-based
Conditions: Staphylococcus aureus, read-out: MIC (µg/mL) MRSA
Excerpt: Additional antimicrobial evaluation against Staphylococcus aureus MRSA (ATCC43300), Pseudomonas aeruginosa (ATCC27853), Escherichia coli (ATCC25922), Klebsiella pneumoniae (ATCC700603), Acinetobacter baumannii (ATCC19606), Candida albicans (ATCC90028), and Cryptococcus neoformans (ATCC208821) was undertaken at the Community for Open Antimicrobial Drug Discovery at The University of Queensland (Australia) according to their standard protocols. For antimicrobial assays, the tested strains were cultured in either Luria broth (LB) (In Vitro Technologies, USB75852, Noble Park North, Australia), nutrient broth (NB) (Becton Dickson, 234000, Macquarie Park, Australia), or cation-adjusted MHB at 37 °C overnight. A sample of culture was then diluted 40-fold in fresh MHB and incubated at 37 °C for 1.5−2 h. The compounds were serially diluted 2-fold across the wells of 96-well plates (Corning 3641, Tewksbury, MA, USA, nonbinding surface), with compound concentrations ranging from 0.015 to 64 μg/mL, plated in duplicate. The resultant mid log phase cultures were diluted to the final concentration of 1 × 10^6 CFU/mL; then, 50 μL was added to each well of the compound containing plates giving a final compound concentration range of 0.008 to 32 μg/mL and a cell density of 5 × 10^5 CFU/mL. All plates were then covered and incubated at 37 °C for 18 h. Resazurin was added at 0.001% final concentration to each well and incubated for 2 h before MICs were read by eye.
(§1) Colistin and vancomycin were used as positive bacterial inhibitor standards for Gram-negative and Gram-positive bacteria, respectively. Fluconazole was used as a positive fungal inhibitor standard for C. albicans and C. neoformans. The antibiotics were provided in 4 concentrations, with 2 above and 2 below its MIC value, and plated into the first 8 wells of column 23 of the 384-well NBS plates. The quality control (QC) of the assays was determined by the antimicrobial controls and the Z′-factor (using positive and negative controls).
With `CN[C@H](CC(C)C)C(=O)N[C@H]1C(=O)N[C@@H](CC(N)=O)C(=O)N[C@H]2C(=O)N[C@H]3C(=O)N[C@H](C(=O)N[C@H](C(=O)O)c4cc(O)cc(O)c4-c4cc3ccc4O)[C@H](O)c3ccc(c(Cl)c3)Oc3cc2cc(c3O[C@@H]2O[C@H](CO)[C@@H](O)[C@H](O)[C@H]2O[C@H]2C[C@](C)(N)[C@H](O)[C@H](C)O2)Oc2ccc(cc2Cl)[C@H]1O` [vancomycin, reference compound] the MIC was 1 µg/mL (≈ 0.69 µM).

Same assay, conditions: result in words
For `Fc1ccc2[nH]cc(-c3cncn3CCc3ccccc3)c2c1` [Compound 3, 5-Fluoro-3-(1-phenethyl-1H-imidazol-5-yl)-1H-indole], the “anti-MRSA activity (in words)” value was “devoid of activity”.

System: not given
Experiment: not given
Conditions: not given
In the case of `Fc1ccc2[nH]cc(-c3cncn3CCc3ccccc3)c2c1` [Compound 3, 5-Fluoro-3-(1-phenethyl-1H-imidazol-5-yl)-1H-indole], the melting point is reported as 127 to 130 °C. Molecule `COc1ccc(CCn2cncc2-c2c[nH]c3ccc(OC)cc23)cc1` [Compound 71, 5-Methoxy-3-(1-(4-methoxyphenethyl)-1H-imidazol-5-yl)-1H-indole] has a melting point of 48 to 49 °C. With `COc1ccc(CCn2cncc2-c2c[nH]c3cc(OC)ccc23)cc1` [Compound 72, 6-Methoxy-3-(1-(4-methoxyphenethyl)-1H-imidazol-5-yl)-1H-indole] the melting point was 45 to 46 °C. `Fc1cccc2[nH]cc(-c3cncn3Cc3c[nH]c4ccccc34)c12` [Compound 73, 3-(1-((1H-Indol-3-yl)methyl)-1H-imidazol-5-yl)-4-fluoro-1H-indole] showed a melting point of 164 to 165 °C. `Fc1cccc2c(-c3cncn3Cc3c[nH]c4ccccc34)c[nH]c12` [Compound 74, 3-(1-((1H-Indol-3-yl)methyl)-1H-imidazol-5-yl)-7-fluoro-1H-indole] gave a melting point of 186 to 187 °C. For `Clc1cccc2[nH]cc(-c3cncn3Cc3c[nH]c4ccccc34)c12` [Compound 75, 3-(1-((1H-Indol-3-yl)methyl)-1H-imidazol-5-yl)-4-chloro-1H-indole], the melting point was 195 to 196 °C. In the case of `Clc1ccc2[nH]cc(-c3cncn3Cc3c[nH]c4ccccc34)c2c1` [Compound 76, 3-(1-((1H-Indol-3-yl)methyl)-1H-imidazol-5-yl)-5-chloro-1H-indole], the melting point is reported as 107 to 108 °C. `Clc1cccc2c(-c3cncn3Cc3c[nH]c4ccccc34)c[nH]c12` [Compound 77, 3-(1-((1H-Indol-3-yl)methyl)-1H-imidazol-5-yl)-7-chloro-1H-indole] showed a melting point of 165 to 166 °C. Molecule `Brc1cccc2[nH]cc(-c3cncn3Cc3c[nH]c4ccccc34)c12` [Compound 78, 3-(1-((1H-Indol-3-yl)methyl)-1H-imidazol-5-yl)-4-bromo-1H-indole] has a melting point of 201 to 202 °C. In the case of `COc1ccc2[nH]cc(-c3cncn3Cc3c[nH]c4ccccc34)c2c1` [Compound 79, 3-(1-((1H-Indol-3-yl)methyl)-1H-imidazol-5-yl)-5-methoxy-1H-indole], the melting point is reported as 97 to 98 °C. With `COc1ccc2c(-c3cncn3Cc3c[nH]c4ccccc34)c[nH]c2c1` [Compound 80, 3-(1-((1H-Indol-3-yl)methyl)-1H-imidazol-5-yl)-6-methoxy-1H-indole] the melting point was 95 to 96 °C. Molecule `Fc1cccc2[nH]cc(-c3cncn3CCc3c[nH]c4ccccc34)c12` [Compound 81, 3-(1-(2-(1H-Indol-3-yl)ethyl)-1H-imidazol-5-yl)-4-fluoro-1H-indole] has a melting point greater than 230 °C. `Fc1cccc2c(-c3cncn3CCc3c[nH]c4ccccc34)c[nH]c12` [Compound 82, 3-(1-(2-(1H-Indol-3-yl)ethyl)-1H-imidazol-5-yl)-7-fluoro-1H-indole] showed a melting point greater than 230 °C. In the case of `Clc1ccc2[nH]cc(-c3cncn3CCc3c[nH]c4ccccc34)c2c1` [Compound 84, 3-(1-(2-(1H-Indol-3-yl)ethyl)-1H-imidazol-5-yl)-5-chloro-1H-indole], the melting point is reported as 70 to 71 °C. Work on `Brc1cccc2[nH]cc(-c3cncn3CCc3c[nH]c4ccccc34)c12` [Compound 86, 3-(1-(2-(1H-Indol-3-yl)ethyl)-1H-imidazol-5-yl)-4-bromo-1H-indole] yielded a melting point greater than 230 °C. `COc1ccc2[nH]cc(-c3cncn3CCc3c[nH]c4ccccc34)c2c1` [Compound 87, 3-(1-(2-(1H-Indol-3-yl)ethyl)-1H-imidazol-5-yl)-5-methoxy-1H-indole] showed a melting point of 152 to 153 °C. With `COc1ccc2c(-c3cncn3CCc3c[nH]c4ccccc34)c[nH]c2c1` [Compound 88, 3-(1-(2-(1H-Indol-3-yl)ethyl)-1H-imidazol-5-yl)-6-methoxy-1H-indole] the melting point was 81 to 82 °C. With `CCCCCn1cncc1-c1c[nH]c2c(Cl)cccc12` [Compound 93, 7-Chloro-3-(1-pentyl-1H-imidazol-5-yl)-1H-indole] the melting point was 122 to 123 °C. With `CCCCCn1cncc1-c1c[nH]c2cccc(Br)c12` [Compound 94, 4-Bromo-3-(1-pentyl-1H-imidazol-5-yl)-1H-indole] the melting point was 207 to 208 °C. `c1ccc(Cn2cncc2-c2ccccc2)cc1` [Compound 103, 1-Benzyl-5-phenyl-1H-imidazole] gave a melting point of 99 to 100 °C. For `COc1ccc(-c2cncn2Cc2ccccc2)cc1` [Compound 104, 1-Benzyl-5-(4-methoxyphenyl)-1H-imidazole], the melting point was 83 to 84 °C. For `COc1ccc(-c2cncn2Cc2c[nH]c3ccccc23)cc1` [Compound 112, 3-((5-(4-Methoxyphenyl)-1H-imidazol-1-yl)methyl)-1H-indole], the melting point was 152 to 153 °C. For `c1ccc(-c2cncn2CCc2c[nH]c3ccccc23)cc1` [Compound 113, 3-(2-(5-Phenyl-1H-imidazol-1-yl)ethyl)-1H-indole], the melting point was 155 to 156 °C. Work on `COc1ccc(-c2cncn2CCc2c[nH]c3ccccc23)cc1` [Compound 114, 3-(2-(5-(4-Methoxyphenyl)-1H-imidazol-1-yl)ethyl)-1H-indole] yielded a melting point of 169 to 170 °C.

System: Staphylococcus aureus ATCC25923
Experiment: MIC by broth dilution, S. aureus ATCC25923
Assay type: cell-based
Conditions: Staphylococcus aureus ATCC25923; mean (n = 3)
Method: The susceptibility of S. aureus (ATCC25923) to antibiotics and compounds was determined in microplates using the standard broth dilution method in accordance with the recommendations of the Comité de l’AntibioGramme de la Société Française de Microbiologie (CA-SFM) as previously described. Briefly, the minimal inhibitory concentrations (MICs) were determined with an inoculum of 10^5 CFU in 200 µL of Mueller-Hinton broth (MHB) containing two-fold serial dilutions of each drug. […] To determine all MICs, the measurements were independently repeated in triplicate.
Work on `O=C(N[C@H](CO)[C@H](O)c1ccc([N+](=O)[O-])cc1)C(Cl)Cl` [chloramphenicol, reference compound] yielded an MIC of 0.5 to 1 µg/mL (≈ 1.55 to 3.09 µM). Molecule `[H]/N=C(/N)N[C@H]1[C@H](O)[C@@H](O)[C@H](O[C@@H]2O[C@@H](C)[C@](O)(C=O)[C@H]2O[C@@H]2O[C@@H](CO)[C@H](O)[C@@H](O)[C@@H]2NC)[C@@H](N/C(N)=N\[H])[C@@H]1O` [streptomycin, reference compound] has an MIC of 12.5 µg/mL (≈ 21.5 µM).

System: Cryptococcus neoformans ATCC208821
Experiment: Antifungal MIC, C. neoformans
Assay type: cell-based
Conditions: Cryptococcus neoformans ATCC208821; mean (n = 2)
Method: For the antifungal assay, fungi strains were cultured for 3 days on yeast extract-peptone dextrose (YPD) agar at 30 °C. A yeast suspension of 1 × 10^6 to 5 × 10^6 CFU/mL was prepared from five colonies. These stock suspensions were diluted with yeast nitrogen base (YNB) (Becton Dickinson, 233520) broth to a final concentration of 2.5 × 10^3 CFU/mL. The compounds were serially diluted 2-fold across the wells of 96-well plates (Corning 3641, nonbinding surface), with compound concentrations ranging from 0.015 to 64 μg/mL and final volumes of 50 μL, plated in duplicate. Then, 50 μL of the fungi suspension that was previously prepared in YNB broth to the final concentration of 2.5 × 10^3 CFU/mL was added to each well of the compound-containing plates, giving a final compound concentration range of 0.008 to 32 μg/mL. Plates were covered and incubated at 35 °C for 36 h without shaking. C. albicans MICs were determined by measuring the absorbance at OD530. For C. neoformans, resazurin was added at 0.006% final concentration to each well and incubated for a further 3 h before MICs were determined by measuring the absorbance at OD570–600.
as §1
Work on `OC(Cn1cncn1)(Cn1cncn1)c1ccc(F)cc1F` [fluconazole, reference compound] yielded an MIC of 8 µg/mL (≈ 26.1 µM).
